Laboratory results taken from US20220388964A1 (HiberCell, Inc., priority 2019, published 2022).
pIC50: −log10 of the molar value.

molecular target: T1, GCN2 (Homo sapiens, UniProt Q9P2K8); test: TR-FRET assay for inhibition of GCN2 (Example 107, for Examples 40-72); conditions: not given
T1 sequence (Q9P2K8 whole entry): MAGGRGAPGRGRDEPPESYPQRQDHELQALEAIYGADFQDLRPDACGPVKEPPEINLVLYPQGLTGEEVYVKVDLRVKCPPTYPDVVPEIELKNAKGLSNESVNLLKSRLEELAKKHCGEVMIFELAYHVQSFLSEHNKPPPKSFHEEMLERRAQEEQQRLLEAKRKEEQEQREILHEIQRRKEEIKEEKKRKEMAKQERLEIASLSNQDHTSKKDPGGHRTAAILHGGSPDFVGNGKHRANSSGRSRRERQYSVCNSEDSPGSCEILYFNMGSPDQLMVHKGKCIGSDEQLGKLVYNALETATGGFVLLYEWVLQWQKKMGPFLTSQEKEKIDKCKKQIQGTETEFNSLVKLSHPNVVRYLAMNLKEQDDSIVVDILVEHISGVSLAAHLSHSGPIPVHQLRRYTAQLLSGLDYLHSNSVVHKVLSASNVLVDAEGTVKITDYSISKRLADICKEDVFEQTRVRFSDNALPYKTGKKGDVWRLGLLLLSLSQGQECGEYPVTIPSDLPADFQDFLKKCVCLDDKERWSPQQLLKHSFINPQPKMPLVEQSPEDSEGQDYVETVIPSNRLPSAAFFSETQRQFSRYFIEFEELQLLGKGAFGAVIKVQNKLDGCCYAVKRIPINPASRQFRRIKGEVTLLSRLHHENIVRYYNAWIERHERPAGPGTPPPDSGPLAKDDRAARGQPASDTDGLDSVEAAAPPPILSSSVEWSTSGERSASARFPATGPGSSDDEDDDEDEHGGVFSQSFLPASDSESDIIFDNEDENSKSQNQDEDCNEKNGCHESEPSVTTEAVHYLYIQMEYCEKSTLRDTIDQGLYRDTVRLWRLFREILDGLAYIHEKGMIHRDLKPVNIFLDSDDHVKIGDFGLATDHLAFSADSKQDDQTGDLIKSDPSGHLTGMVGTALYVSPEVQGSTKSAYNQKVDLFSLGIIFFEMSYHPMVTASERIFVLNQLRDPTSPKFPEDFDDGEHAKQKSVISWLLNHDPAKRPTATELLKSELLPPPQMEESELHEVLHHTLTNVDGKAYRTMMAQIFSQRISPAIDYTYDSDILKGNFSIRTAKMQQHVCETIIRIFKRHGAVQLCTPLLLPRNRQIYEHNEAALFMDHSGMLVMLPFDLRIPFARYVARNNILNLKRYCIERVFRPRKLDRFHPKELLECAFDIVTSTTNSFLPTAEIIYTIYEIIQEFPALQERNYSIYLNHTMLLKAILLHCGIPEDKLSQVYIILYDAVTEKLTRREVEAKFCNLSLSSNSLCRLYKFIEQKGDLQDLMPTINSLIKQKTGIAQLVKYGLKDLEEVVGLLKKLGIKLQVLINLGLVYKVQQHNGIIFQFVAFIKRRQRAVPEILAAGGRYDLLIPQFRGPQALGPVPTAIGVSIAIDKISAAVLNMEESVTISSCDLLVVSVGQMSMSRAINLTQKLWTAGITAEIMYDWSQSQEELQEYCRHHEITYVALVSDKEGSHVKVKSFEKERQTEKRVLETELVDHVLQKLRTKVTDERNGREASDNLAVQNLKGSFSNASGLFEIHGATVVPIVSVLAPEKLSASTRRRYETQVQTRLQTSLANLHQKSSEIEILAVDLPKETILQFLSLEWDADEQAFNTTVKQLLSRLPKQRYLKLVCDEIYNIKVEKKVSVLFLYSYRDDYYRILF

SMILES | pIC50
CNC(=O)c1n[nH]c2c(F)c(-c3c(F)ccc(NS(=O)(=O)c4cc(F)cnc4OC)c3F)ncc12 [Example 70, 6-[2,6-Difluoro-3-(5-fluoro-2-methoxypyridine-3-sulfonamido)phenyl]-7-fluoro-N-methyl-1H-pyrazolo[4,3-c]pyridine-3-carboxamide] | > 6.30
CNC(=O)c1n[nH]c2c(F)c(-c3c(F)ccc(NS(=O)(=O)c4cc(Cl)cnc4OC)c3F)cc(C)c12 [Example 47, 6-[3-(5-chloro-2-methoxypyridine-3-sulfonamido)-2,6-difluorophenyl]-7-fluoro-N,4-dimethyl-1H-indazole-3-carboxamide] | > 6.30
COc1ncc(Cl)cc1S(=O)(=O)Nc1ccc(F)c(-c2ccc3c(C(=O)NC4CCNC4=O)n[nH]c3c2F)c1F (stereo not shown) [Example 54, 6-[3-(5-Chloro-2-methoxypyridine-3-sulfonamido)-2,6-difluorophenyl]-7-fluoro-N-(2-oxopyrrolidin-3-yl)-1H-indazole-3-carboxamide] | > 6.30
COc1ncc(Cl)cc1S(=O)(=O)Nc1ccc(F)c(-c2ccc3c(-c4ncco4)n[nH]c3c2F)c1F [Example 64, 5-chloro-N-[2,4-difluoro-3-[7-fluoro-3-(1,3-oxazol-2-yl)-1H-indazol-6-yl]phenyl]-2-methoxypyridine-3-sulfonamide] | > 6.30
COc1ncc(Cl)cc1S(=O)(=O)Nc1ccc(F)c(-c2ccc3c(C(=O)NC4CCN(C(C)=O)C4)n[nH]c3c2F)c1F (stereo not shown) [Example 51, N-(1-acetylpyrrolidin-3-yl)-6-[3-(5-chloro-2-methoxypyridine-3-sulfonamido)-2,6-difluorophenyl]-7-fluoro-1H-indazole-3-carboxamide] | > 6.30
COc1ncc(Cl)cc1S(=O)(=O)Nc1ccc(F)c(-c2ccc3c(C(=O)NC4CCC(=O)N(C)C4)n[nH]c3c2F)c1F (stereo not shown) [Example 50, 6-[3-(5-Chloro-2-methoxypyridine-3-sulfonamido)-2,6-difluorophenyl]-7-fluoro-N-(1-methyl-6-oxopiperidin-3-yl)-1H-indazole-3-carboxamide] | > 6.30
CNC(=O)c1n[nH]c2c(F)c(-c3c(F)ccc(NS(=O)(=O)c4cc(Cl)cnc4OC)c3F)ncc12 [Example 67, 6-[3-(5-Chloro-2-methoxypyridine-3-sulfonamido)-2,6-difluorophenyl]-7-fluoro-N-methyl-1H-pyrazolo[4,3-c]pyridine-3-carboxamide] | > 6.30
CNC(=O)c1n[nH]c2c(F)c(-c3c(F)ccc(NS(=O)(=O)c4cc(C#N)cnc4OC)c3F)ncc12 [Example 71, 6-[3-(5-Cyano-2-methoxypyridine-3-sulfonamido)-2,6-difluorophenyl]-7-fluoro-N-methyl-1H-pyrazolo[4,3-c]pyridine-3-carboxamide] | > 6.30

Now from value to compound:

pIC50 | SMILES
> 6.30 | CCC(C)NC(=O)c1n[nH]c2c(F)c(-c3c(F)ccc(NS(=O)(=O)c4cc(Cl)cnc4OC)c3F)ccc12 (stereo not shown) [Example 56, 6-[3-(5-Chloro-2-methoxypyridine-3-sulfonamido)-2,6-difluorophenyl]-7-fluoro-N-(sec-butyl)-1H-indazole-3-carboxamide]
> 6.30 | COc1ncc(Cl)cc1S(=O)(=O)Nc1ccc(F)c(-c2ccc3c(C(=O)NCC(C)C)n[nH]c3c2F)c1F [Example 48, 6-[3-(5-Chloro-2-methoxypyridine-3-sulfonamido)-2,6-difluorophenyl]-7-fluoro-N-(2-methylpropyl)-1H-indazole-3-carboxamide]
> 6.30 | CCCNC(=O)c1n[nH]c2c(F)c(-c3c(F)ccc(NS(=O)(=O)c4cc(Cl)cnc4OC)c3F)ccc12 [Example 58, 6-[3-(5-Chloro-2-methoxypyridine-3-sulfonamido)-2,6-difluorophenyl]-7-fluoro-N-propyl-1H-indazole-3-carboxamide]
> 6.30 | COc1ncc(Cl)cc1S(=O)(=O)Nc1ccc(F)c(-c2ccc3c(NC(C)=O)n[nH]c3c2F)c1F [Example 44, N-(6-(3-(5-chloro-2-methoxypyridine-3-sulfonamido)-2,6-difluorophenyl)-7-fluoro-1H-indazol-3-yl)acetamide]
5.60 to 6.30 | CNC(=O)c1n[nH]c2c(F)c(-c3c(F)ccc(NS(=O)(=O)c4cccc5[nH]cnc45)c3F)ccc12 [Example 62, 6-[3-(1H-1,3-Benzodiazole-4-sulfonamido)-2,6-difluorophenyl]-7-fluoro-N-methyl-1H-indazole-3-carboxamide]
> 6.30 | CNC(=O)c1n[nH]c2c(F)c(-c3c(F)ccc(NS(=O)(=O)c4cc(F)cnc4C)c3F)ccc12 [Example 65, 6-[2,6-difluoro-3-(5-fluoro-2-methylpyridine-3-sulfonamido)phenyl]-7-fluoro-N-methyl-1H-indazole-3-carboxamide]
> 6.30 | COc1ncc(Cl)cc1S(=O)(=O)Nc1ccc(F)c(-c2ccc3c(C(=O)NC(C)CO)n[nH]c3c2F)c1F (stereo not shown) [Example 53, 6-[3-(5-Chloro-2-methoxypyridine-3-sulfonamido)-2,6-difluorophenyl]-7-fluoro-N-(1-hydroxypropan-2-yl)-1H-indazole-3-carboxamide]
> 6.30 | COc1ncc(Cl)cc1S(=O)(=O)Nc1ccc(F)c(-c2ccc3c(C(=O)NC4CCNC4)n[nH]c3c2F)c1F (stereo not shown) [Example 57, 6-[3-(5-Chloro-2-methoxypyridine-3-sulfonamido)-2,6-difluorophenyl]-7-fluoro-N-(pyrrolidin-3-yl)-1H-indazole-3-carboxamide]
5.60 to 6.30 | CNC(=O)c1n[nH]c2c(F)c(-c3c(F)ccc(NS(=O)(=O)c4cccc5c4ncn5C)c3F)ccc12 [Example 69, 6-[2,6-Difluoro-3-(1-methyl-1,3-benzodiazole-4-sulfonamido)phenyl]-7-fluoro-N-methyl-1H-indazole-3-carboxamide]
> 6.30 | CNC(=O)c1n[nH]c2c(F)c(-c3c(F)ccc(NS(=O)(=O)c4cccc5occc45)c3F)ccc12 [Example 61, 6-[3-(1-Benzofuran-4-sulfonamido)-2,6-difluorophenyl]-7-fluoro-N-methyl-1H-indazole-3-carboxamide]
5.60 to 6.30 | CNC(=O)c1n[nH]c2c(F)c(-c3c(F)ccc(NS(=O)(=O)c4ccc5ccoc5c4)c3F)ccc12 [Example 68]
> 6.30 | CNC(=O)c1n[nH]c2c(F)c(-c3c(F)ccc(NS(=O)(=O)c4cccc5ncn(C)c45)c3F)ccc12 [Example 63, 6-[2,6-Difluoro-3-(3-methyl-1,3-benzodiazole-4-sulfonamido)phenyl]-7-fluoro-N-methyl-1H-indazole-3-carboxamide]
> 6.30 | CNC(=O)c1n[nH]c2c(F)c(-c3c(F)ccc(NS(=O)(=O)c4cc(Cl)cnc4C)c3F)ncc12 [Example 72, 6-[3-(5-Chloro-2-methylpyridine-3-sulfonamido)-2,6-difluorophenyl]-7-fluoro-N-methyl-1H-pyrazolo[4,3-c]pyridine-3-carboxamide]
> 6.30 | COc1ncc(Cl)cc1S(=O)(=O)Nc1ccc(F)c(-c2ccc3c(C(=O)NC4CCCOC4)n[nH]c3c2F)c1F (stereo not shown) [Example 55, 6-[3-(5-Chloro-2-methoxypyridine-3-sulfonamido)-2,6-difluorophenyl]-7-fluoro-N-(oxan-3-yl)-1H-indazole-3-carboxamide]
> 6.30 | CCNC(=O)c1n[nH]c2c(F)c(-c3c(F)ccc(NS(=O)(=O)c4cc(Cl)cnc4OC)c3F)ccc12 [Example 49, 6-(3-((5-Chloro-2-methoxypyridine)-3-sulfonamido)-2,6-difluorophenyl)-N-ethyl-7-fluoro-1H-indazole-3-carboxamide]
> 6.30 | CNC(=O)c1n[nH]c2c(F)c(-c3c(F)ccc(NS(=O)(=O)c4cc(F)cnc4C)c3F)ncc12 [Example 66, 6-[2,6-Difluoro-3-(5-fluoro-2-methylpyridine-3-sulfonamido)phenyl]-7-fluoro-N-methyl-1H-pyrazolo[4,3-c]pyridine-3-carboxamide]
5.60 to 6.30 | CNC(=O)c1n[nH]c2c(F)c(-c3c(F)ccc(NS(=O)(=O)c4cccc(CO)c4)c3F)ccc12 [Example 41, 6-[2,6-Difluoro-3-[3-(hydroxymethyl)benzenesulfonamido]phenyl]-7-fluoro-N-methyl-1H-indazole-3-carboxamide]

molecular target: T1, GCN2; test: TR-FRET biochemical assay for inhibition of GCN2 (Example 106, for Example 1-4BB); conditions: Table 8

pIC50 | SMILES
> 6.30 | Cc1nn(C(F)F)cc1S(=O)(=O)Nc1ccc(F)c(-c2ccc3c(-c4ncc[nH]4)n[nH]c3c2F)c1F [Example 2BU, N-(2,4-difluoro-3-(7-fluoro-3-(1H-imidazol-2-yl)-1H-indazol-6-yl)phenyl)-1-(difluoromethyl)-3-methyl-1H-pyrazole-4-sulfonamide]
> 6.30 | COc1ncc(Cl)cc1S(=O)(=O)Nc1ccc(F)c(-c2ccc3c(-c4ccn[nH]4)n[nH]c3c2F)c1F [Example 2BZ, 5-chloro-N-(2,4-difluoro-3-(7-fluoro-3-(1H-pyrazol-5-yl)-1H-indazol-6-yl)phenyl)-2-methoxypyridine-3-sulfonamide]
> 6.30 | Cc1ccc(S(=O)(=O)Nc2ccc(F)c(-c3ccc4c(-c5ncc[nH]5)n[nH]c4c3F)c2F)c(C)n1 [Example 2AA, N-(2,4-difluoro-3-(7-fluoro-3-(1H-imidazol-2-yl)-1H-indazol-6-yl)phenyl)-2,6-dimethyl-pyridine-3-sulfonamide]

same assay, conditions: Table 9

pIC50 | SMILES
5.60 to 6.30 | COc1cccc(-c2n[nH]c3c(F)c(-c4c(F)ccc(NS(=O)(=O)c5cc(F)cnc5C)c4F)ccc23)n1 [Example 14, N-(2,4-Difluoro-3-(7-fluoro-3-(6-methoxypyridin-2-yl)-1H-indazol-6-yl)phenyl)-5-fluoro-2-methylpyridine-3-sulfonamide]
< 5.00 | COc1ncc(Cl)cc1S(=O)(=O)Nc1nccc(-c2ccc3c(-c4ncc[nH]4)n[nH]c3c2F)c1F [Example 11, 5-Chloro-N-(3-fluoro-4-(7-fluoro-3-(1H-imidazol-2-yl)-1H-indazol-6-yl)pyridin-2-yl)-2-methoxypyridine-3-sulfonamide]
> 6.30 | COc1nscc1S(=O)(=O)Nc1cc(F)cc(-c2ccc3c(-c4ncc[nH]4)n[nH]c3c2F)c1F [Example 3BZ, N-(2,5-difluoro-3-(7-fluoro-3-(1H-imidazol-2-yl)-1H-indazol-6-yl)phenyl)-3-methoxyisothiazole-4-sulfonamide]
